Reference: patent publication US20250338857A1, “USE OF INTERFERING RNAS DIRECTED AGAINST THE CHOLINERGIC SYSTEM FOR CONTROLLING INSECT PESTS” (priority 2022, published 2025)
≈ marks a conversion by molar mass, not a printed value.

Key:
aphid larvae = test: Imidacloprid concentration-effect mortality curve in aphid larvae (LC50); assay type: in vivo; conditions: Acyrthosiphon pisum, artificial nutrition
Method: Mortality tests were performed using an artificial nutrition system comprising a PVC tube closed by a Parafilm® at each end, in which 5 adult aphids or 20 larvae were deposited. At one of the ends of the artificial nutrition “cell”, 200 μL of nutrient solution comprising the solution to be tested (insecticide, dsRNA) were deposited on the Parafilm then covered with a 2nd Parafilm to allow the aphids to suck the solution for feeding by piercing the Parafilm with their rostrum. The cells were placed at 20° C. in a chamber with a photoperiod of 16 h. To determine the concentration of imidacloprid leading to 50% mortality (LC50) in the aphid larvae, a concentration-effect curve was plotted at 48 h and 72 h from a range of imidacloprid concentrations from 10^−6 to 10 μg/mL.
The mortality curves were obtained with GraphPad Prism software in the form of a non-linear regression and adjusted with the Hill equation,
[formula] • where Y is the percent mortality observed at the concentration value X, m and M are respectively the minimum and maximum values of the curve, nH is the Hill coefficient and LC50 is the concentration of imidacloprid causing 50% mortality. The results are expressed as a mean±S.E.M. Type of Effect of the dsRNAs

[1] = test system: cockroach Periplaneta americana; test: Mortality after acute imidacloprid intoxication in cockroaches exposed to a sublethal dose for 30 days; assay type: in vivo; conditions: 0.025 μg/cockroach/day for 30 days, re-exposure 96 h

SMILES: O=[N+]([O-])NC1=NCCN1Cc1ccc(Cl)nc1 [imidacloprid]
- LC50 (aphid larvae; 48 h): 8 ng/mL (≈ 0.0313 µM)
- LC50 (aphid larvae; 72 h): 4 ng/mL (≈ 0.0156 µM)
- effect of sublethal intoxication for 30 days on sensitivity of cockroaches to acute intoxication [1]: loss of sensitivity
